# Data from patent US5977133A, “Pyridone antibiotic with improved safety profile” (priority 1998, dated 1999).
# Where a name gives a salt, the structure may show the parent alone.
# Tests used:
# Format in all cases: cell-based
# [1] = test system: P. aeruginosa (CiproR); assay: In vitro MIC, agar dilution; settings: Pseudomonas aeruginosa
# [2] = test system: C. difficile; assay: In vitro MIC, agar dilution; settings: Clostridioides difficile
# [3] = test system: Enterococcus spp. (VanR); assay: In vitro MIC, agar dilution; settings: Enterococcus
# [4] = test system: Enterobacter spp.; assay: In vitro MIC, agar dilution; settings: Enterobacter
# [5] = test system: Providencia spp.; assay: In vitro MIC, agar dilution; settings: Providencia
# [6] = test system: Shigella spp.; assay: microbe, parasite or virus in culture; settings: read-out: MIC Range
# [7] = test system: C. freundii; assay: In vitro MIC, agar dilution; settings: Citrobacter freundii
# [8] = test system: E. faecium (VanS); assay: In vitro MIC, agar dilution; settings: Enterococcus faecium
# [9] = test system: E. faecium (CiproS); assay: In vitro MIC, agar dilution; settings: Enterococcus faecium
# [10] = test system: S. pneumoniae (CiproR); assay: In vitro MIC, agar dilution; settings: Streptococcus pneumoniae, read-out: MIC Range
# [11] = test system: S. epidermidis (CiproS); assay: In vitro MIC, agar dilution; settings: Staphylococcus epidermidis
# [12] = test system: S. pyogenes; assay: In vitro MIC, agar dilution; settings: Streptococcus pyogenes
# [13] = test system: H. pylori; assay: In vitro MIC, agar dilution; settings: Helicobacter pylori
# [14] = test system: E. faecium (CiproR); assay: In vitro MIC, agar dilution; settings: Enterococcus faecium, read-out: MIC Range
# [15] = test system: C. perfringens; assay: microbe, parasite or virus in culture; settings: Clostridium perfringens
# [16] = test system: S. pneumoniae (PenS); assay: In vitro MIC, agar dilution; settings: Streptococcus pneumoniae
# [17] = test system: M. catarrhalis; assay: In vitro MIC, agar dilution; settings: Moraxella catarrhalis
# [18] = test system: S. epidermidis (CiproR); assay: In vitro MIC, agar dilution; settings: Staphylococcus epidermidis
# [19] = test system: S. pneumoniae (PenR); assay: In vitro MIC, agar dilution; settings: Streptococcus pneumoniae
# [20] = test system: N. gonorrhoeae; assay: In vitro MIC, agar dilution; settings: Neisseria gonorrhoeae
# [21] = test system: M. avium; assay: In vitro MIC, agar dilution; settings: Mycobacterium avium
# [22] = test system: B. fragilis; assay: In vitro MIC, agar dilution; settings: Bacteroides fragilis
# [23] = test system: Salmonella spp.; assay: In vitro MIC, agar dilution; settings: 23 isolates
# Experimental: (§1) Each plate was inoculated with 1:100 (or 1:10 for slow-growing strains, primarily Micrococcus and Streptococcus) dilutions of up to 32 different microorganisms, using a Steers replicator block calibrated to deliver approximately 10^4 colony forming units (CFU's). The inoculated plates were incubated at from about 35° C. to about 37 ° C. for approximately 20-24 hours. In addition, a control plate using BHI agar containing no test compound was prepared and incubated at the beginning and at the end of each test. The quinolone antibacterial ciprofloxacin was used as a control ("Cntl").
# (§2) The numbers below the microorganism species indicate the nunbers of isolates tested. […] The MIC is defined as the lowest concentration of test compound yielding no growth (a slight haze or sparsely isolated colonies at the inoculum spot) as compared to the growth control containing no test compound.
# [24] = test system: E. coli; assay: In vitro MIC, agar dilution; settings: Escherichia coli, 25 isolates
# Experimental: as §1, §2
# [25] = test system: H. influenzae; assay: In vitro MIC, agar dilution; settings: Haemophilus influenzae
# [26] = test system: S. aureus (CiproS); assay: In vitro MIC, agar dilution; settings: Staphylococcus aureus
# [27] = test system: Legionella spp.; assay: microbe, parasite or virus in culture; settings: Legionella
# [28] = test system: S. aureus (CiproR); assay: In vitro MIC, agar dilution; settings: Staphylococcus aureus
# [29] = test system: P. aeruginosa (CiproS); assay: In vitro MIC, agar dilution; settings: Pseudomonas aeruginosa
# [30] = test system: Klebsiella spp.; assay: In vitro MIC, agar dilution; settings: Klebsiella
# [31] = test system: P. mirabilis; assay: In vitro MIC, agar dilution; settings: Proteus mirabilis
# [32] = test system: M. pneumoniae; assay: In vitro MIC, agar dilution; settings: Mycoplasmoides pneumoniae, read-out: MIC Range
# [33] = test system: E. faecalis (VanS); assay: In vitro MIC, agar dilution; settings: Enterococcus faecalis
compound,measurement,setting,value
"Cc1c(N2C[C@@H]3CCCN[C@@H]3C2)c(F)cn2c(=O)c(C(=O)O)cc(C3CC3)c12 [Example 4, 1-cyclopropyl-8-(S,S-2,8-diaza-8-bicyclo[4.3.0]nonyl)-7-fluoro-4H-9-methyl-4-oxo-quinolizine-3-carboxylic acid hydrochloride]",MIC50,[1],8 µg/mL
same,MIC90,[1],16 µg/mL
same,MIC,[1]; read-out: MIC Range,4 to 64 µg/mL
same,MIC50,[2],0.25 µg/mL
same,MIC90,[2],0.25 µg/mL
same,MIC,[2]; read-out: MIC Range,0.03 to 0.25 µg/mL
same,MIC50,[3],1 µg/mL
same,MIC90,[3],1 µg/mL
same,MIC,[3]; read-out: MIC Range,0.06 to 4 µg/mL
same,MIC50,[4],0.03 µg/mL
same,MIC90,[4],0.12 µg/mL
same,MIC,[4]; read-out: MIC Range,0.015 to 0.12 µg/mL
same,MIC50,[5],0.03 µg/mL
same,MIC90,[5],0.12 µg/mL
same,MIC,[5]; read-out: MIC Range,0.008 to 0.25 µg/mL
same,MIC,[6],0.004 to 0.015 µg/mL
same,MIC50,[7],0.03 µg/mL
same,MIC90,[7],0.25 µg/mL
same,MIC,[7]; read-out: MIC Range,0.015 to 0.25 µg/mL
same,MIC50,[8],0.5 µg/mL
same,MIC90,[8],1 µg/mL
same,MIC,[8]; read-out: MIC Range,0.12 to 1 µg/mL
same,MIC50,[9],0.5 µg/mL
same,MIC90,[9],1 µg/mL
same,MIC,[9]; read-out: MIC Range,0.25 to 1 µg/mL
same,MIC,[10],0.12 to 0.25 µg/mL
same,MIC50,[11],0.03 µg/mL
same,MIC90,[11],0.03 µg/mL
same,MIC,[11]; read-out: MIC Range,0.015 to 0.03 µg/mL
same,MIC50,[12],0.06 µg/mL
same,MIC90,[12],0.06 µg/mL
same,MIC,[12]; read-out: MIC Range,0.03 to 0.06 µg/mL
same,MIC50,[13],0.12 µg/mL
same,MIC90,[13],0.25 µg/mL
same,MIC,[13]; read-out: MIC Range,0.06 to 0.25 µg/mL
same,MIC,[14],0.5 to 4 µg/mL
same,MIC50,[15],0.5 µg/mL
same,MIC90,[15],1 µg/mL
same,MIC,[15]; read-out: MIC Range,0.25 to 1 µg/mL
same,MIC50,[16],0.06 µg/mL
same,MIC90,[16],0.12 µg/mL
same,MIC,[16]; read-out: MIC Range,0.06 to 0.12 µg/mL
same,MIC50,[17],0.015 µg/mL
same,MIC90,[17],0.03 µg/mL
same,MIC,[17]; read-out: MIC Range,0.015 to 0.03 µg/mL
same,MIC50,[18],0.25 µg/mL
same,MIC90,[18],0.5 µg/mL
same,MIC,[18]; read-out: MIC Range,0.12 to 4 µg/mL
same,MIC50,[19],0.03 µg/mL
same,MIC90,[19],0.03 µg/mL
same,MIC,[19]; read-out: MIC Range,0.008 to 0.03 µg/mL
same,MIC50,[20],0.002 µg/mL
same,MIC90,[20],0.015 µg/mL
same,MIC,[20]; read-out: MIC Range,0.002 to 0.015 µg/mL
same,MIC50,[21],0.25 µg/mL
same,MIC90,[21],1 µg/mL
same,MIC,[21]; read-out: MIC Range,0.25 to 4 µg/mL
same,MIC50,[22],0.25 µg/mL
same,MIC90,[22],0.25 µg/mL
same,MIC,[22]; read-out: MIC Range,0.12 to 0.5 µg/mL
same,MIC,[23],0.004 to 0.12 µg/mL
same,MIC50,[23]; read-out: MIC50,0.03 µg/mL
same,MIC90,[23]; read-out: MIC90,0.06 µg/mL
same,MIC,[24],≤ 0.008 µg/mL
same,MIC50,[24]; read-out: MIC50,≤ 0.008 µg/mL
same,MIC90,[24]; read-out: MIC90,≤ 0.008 µg/mL
same,MIC50,[25],0.015 µg/mL
same,MIC90,[25],0.015 µg/mL
same,MIC,[25]; read-out: MIC Range,0.004 to 0.015 µg/mL
same,MIC50,[26],0.002 µg/mL
same,MIC90,[26],0.002 µg/mL
same,MIC,[26]; read-out: MIC Range,0.0005 to 0.002 µg/mL
same,MIC50,[27],0.25 µg/mL
same,MIC90,[27],0.25 µg/mL
same,MIC,[27]; read-out: MIC Range,0.25 to 0.5 µg/mL
same,MIC50,[28],0.06 µg/mL
same,MIC90,[28],0.25 µg/mL
same,MIC,[28]; read-out: MIC Range,0.008 to 0.5 µg/mL
same,MIC50,[29],0.12 µg/mL
same,MIC90,[29],1 µg/mL
same,MIC,[29]; read-out: MIC Range,0.03 to 2 µg/mL
same,MIC50,[30],0.06 µg/mL
same,MIC90,[30],0.06 µg/mL
same,MIC,[30]; read-out: MIC Range,0.008 to 0.25 µg/mL
same,MIC50,[31],0.06 µg/mL
same,MIC90,[31],0.12 µg/mL
same,MIC,[31]; read-out: MIC Range,0.03 to 0.12 µg/mL
same,MIC,[32],0.015 to 0.03 µg/mL
same,MIC50,[33],0.12 µg/mL
same,MIC90,[33],0.25 µg/mL
same,MIC,[33]; read-out: MIC Range,0.12 to 0.25 µg/mL
